Here are results for three substances from PMC3201797 (Bioorganic & medicinal chemistry letters, 2010).

Format in all cases: biochemical
Experiment [1] has as its target T1, prostate-specific membrane antigen (PSMA) (Homo sapiens, UniProt Q04609). The experiment in a line: PSMA enzyme inhibition assay with purified PSMA.
Experiment [2] has as its target T1, prostate-specific membrane antigen (PSMA). The experiment in a line: PSMA enzyme inhibition assay with purified PSMA. This is another data set of the same source.
The target is the same in experiment [3]. Put plainly: PSMA enzyme inhibition assay.

pIC50: −log10 of the molar value.

Usually pIC50 stands for the negative decadic logarithm of the IC50, by convention in mol/L.

T1 sequence (Q04609 whole entry): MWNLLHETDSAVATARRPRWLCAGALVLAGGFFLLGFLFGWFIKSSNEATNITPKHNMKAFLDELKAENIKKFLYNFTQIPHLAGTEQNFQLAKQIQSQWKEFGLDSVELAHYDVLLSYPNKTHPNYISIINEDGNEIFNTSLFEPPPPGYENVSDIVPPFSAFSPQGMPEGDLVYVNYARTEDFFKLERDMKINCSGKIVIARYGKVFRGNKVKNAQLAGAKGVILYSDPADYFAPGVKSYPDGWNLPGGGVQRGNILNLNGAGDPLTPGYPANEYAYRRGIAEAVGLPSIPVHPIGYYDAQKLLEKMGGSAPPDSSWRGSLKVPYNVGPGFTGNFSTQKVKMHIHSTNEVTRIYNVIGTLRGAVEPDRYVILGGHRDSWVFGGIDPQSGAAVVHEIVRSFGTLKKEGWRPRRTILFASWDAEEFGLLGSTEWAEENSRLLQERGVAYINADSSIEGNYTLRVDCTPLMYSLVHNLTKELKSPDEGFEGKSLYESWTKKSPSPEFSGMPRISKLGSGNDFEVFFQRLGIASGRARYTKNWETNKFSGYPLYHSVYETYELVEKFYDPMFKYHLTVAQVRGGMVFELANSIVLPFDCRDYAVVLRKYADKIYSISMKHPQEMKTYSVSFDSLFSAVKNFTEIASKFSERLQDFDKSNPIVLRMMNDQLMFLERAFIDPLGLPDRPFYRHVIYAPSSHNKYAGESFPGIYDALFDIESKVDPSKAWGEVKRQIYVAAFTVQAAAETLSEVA

Consider CTT-54.2, for which the pIC50 in experiment [1] was 6.84.

In turn, Cy5.5-CTT-54.2 had a pIC50 in experiment [2] of 9.26.

With Cy5.5 free acid, the pIC50 in experiment [3] was 5.21.
